Data taken from patent publication US20090023200A1, “PARTICLE FOR DETECTING ENZYME ACTIVITY, METHOD FOR DETECTING THE ENZYME ACTIVITY AND ENZYME ACTIVITY DETECTION DEVICE BY THE USE THEREOF” (priority 2005, published 2009).
Square brackets hold non-standard residues; d marks the D form. Ends that are not written are not given here. * marks the point of attachment. FITC = O=C1OC2(c3ccc(O)cc3Oc3cc(O)ccc32)c2ccc(NC(=S)*)cc21; Dnp = O=[N+]([O-])c1ccc(*)c([N+](=O)[O-])c1; βAla = NCCC(=O)O

Experiments:
Type in all cases: biochemical
[1] = system: trypsin; test: Trypsin cleavage of particles for detecting enzyme activity, fluorescence change (Example 2); conditions: trypsin 100 units, 1 mg particle, difference 60 minutes after adding sample solution vs before; excitation 485 nm, fluorescence 535 nm
Description: To each 1 mg of the particle for detecting the enzyme activity of the samples 9 to 21, 190 μL of 20 mM Tris-HCl buffer (pH 8.0, 100 mM NaCl, 50 mM CaCl2) containing 0.01% Tween 20 was added, to which […] of trypsin aqueous solution (100 units) as the sample solution was added. Every measurement time, 10 μL of the sample was taken and 190 μL of the buffer was added, the mixture was transferred to the 96-well plate, and fluorescence values were measured (measurement time: 0.1 seconds) using Wallac 1420 ARVO sx plate reader manufactured by PerkinElmer. The changed amount (difference between the fluorescence value 60 minutes after adding the sample solution and the fluorescence value before adding the sample solution) of the fluorescence value 60 minutes after adding the sample solution is shown in the column on the right in Table 2 (excitation wavelength: 485 nm, fluorescence wavelength: 535 nm).

[2] = system: subtilisin; test: Subtilisin cleavage of particles, fluorescence change (Example 3); conditions: subtilisin 10 units, 1 mg particle, difference 60 minutes after adding sample solution vs before; excitation 485 nm, fluorescence 535 nm
Description: (§1) To each 1 mg of the particle for detecting the enzyme activity of the samples 22 to 25, 190 μL of 20 mM Tris-HCl buffer (pH 8.0, 100 mM NaCl, 50 mM CaCl2) containing 0.01% Tween 20 was added, to which 10 μL of elastase aqueous solution (10 units), 10 μL of trypsin aqueous solution (10 units) and 10 μL of subtilisin aqueous solution (10 units) as the sample solution was added. Every measurement time, 10 μL of the sample was taken and 190 μL of the buffer was added, the mixture was transferred to the 96-well plate, and fluorescence values were measured (measurement time: 0.1 seconds) using Wallac 1420 ARVO sx plate reader manufactured by PerkinElmer. The changed amount (difference between the fluorescence value 60 minutes after adding the sample solution and the fluorescence value before adding the sample solution) of the fluorescence value […] the sample solution is shown in the column on the right in Table 3 (excitation wavelength: 485 nm, fluorescence wavelength: 535 nm).

[3] = system: trypsin; test: Trypsin cleavage of particles, fluorescence change (Example 3); conditions: for Fluorescence value Trypsin (changed amount): trypsin 10 units, 1 mg particle, difference 60 minutes after adding sample solution vs before, excitation 485 nm, fluorescence 535 nm
Description: as §1

[4] = system: elastase; test: Elastase cleavage of particles, fluorescence change (Example 3); conditions: for Fluorescence value Elastase (changed amount): elastase 10 units, 1 mg particle, difference 60 minutes after adding sample solution vs before, excitation 485 nm, fluorescence 535 nm
Description: as §1

[5] = system: subtilisin; test: Subtilisin cleavage of particles for detecting enzyme activity, fluorescence change (Example 1); conditions: for Fluorescence value (changed amount): subtilisin 10 units, 1 mg particle, difference 20 minutes after adding sample solution vs before, excitation 485 nm, fluorescence 535 nm
Description: To each 1 mg of the particle for detecting the enzyme activity of the samples 1 to 8, 190 μL of 20 mM Tris-HCl buffer (pH 8.0, 100 mM NaCl, 50 mM CaCl2) containing 0.01% Tween 20 was added, to which 10 μL of subtilisin aqueous solution (10 units) as a sample solution was added. Every measurement time, 10 μL of the sample was taken and 190 μL of the buffer was added, the mixture was transferred to a 96-well plate, and fluorescence values were measured (measurement time: 0.1 seconds) using Wallac 1420 ARVO sx plate reader manufactured by PerkinElmer. A changed amount (difference between the fluorescence value 20 minutes after adding the sample solution and the fluorescence value before adding the sample solution) of the fluorescence value 20 minutes after adding the sample solution is shown in the column on the right in Table 1 (excitation wavelength: 485 nm, fluorescence wavelength: 535 nm).

## Sample 17: PEGA resin particle bearing FITC-β-Ala-Pro-Arg-Leu-Lys, Dnp quencher on lysine ({FITC}-[βAla]PRLK(Dnp); also: attached to PEGA resin particle)
[1]
  Fluorescence value (changed amount): 10

## Sample 18: PEGA resin particle bearing FITC-β-Ala-Thr-Arg-Val-Lys, Dnp quencher on lysine ({FITC}-[βAla]TRVK(Dnp); also: attached to PEGA resin particle)
[1]
  Fluorescence value (changed amount): 9

## Sample 14: PEGA resin particle bearing FITC-β-Ala-Asn-Pro-Arg-Lys, Dnp quencher on lysine ({FITC}-[βAla]NPRK(Dnp); also: attached to PEGA resin particle)
[1]
  Fluorescence value (changed amount): 18

## Sample 24: PEGA resin particle bearing FITC-β-Ala-Asn-Leu-Asp-Lys, Dnp quencher on lysine ({FITC}-[βAla]NLDK(Dnp); also: attached to PEGA resin particle)
[2]
  Fluorescence value Subtilisin (changed amount): 446
[3]
  Fluorescence value Trypsin (changed amount): 5
[4]
  Fluorescence value Elastase (changed amount): 23

## Sample 25: PEGA resin particle bearing FITC-β-Ala-Ala-Pro-Leu-Lys, Dnp quencher on lysine ({FITC}-[βAla]APLK(Dnp); also: attached to PEGA resin particle)
[2]
  Fluorescence value Subtilisin (changed amount): 428
[3]
  Fluorescence value Trypsin (changed amount): 11
[4]
  Fluorescence value Elastase (changed amount): 134

## Sample 20: PEGA resin particle bearing FITC-β-Ala-His-Leu-Lys-Lys, Dnp quencher on lysine ({FITC}-[βAla]HLKK(Dnp); also: attached to PEGA resin particle)
[1]
  Fluorescence value (changed amount): 7

## Sample 10: PEGA resin particle bearing FITC-β-Ala-Asp-Gly-Arg-Lys, Dnp quencher on lysine ({FITC}-[βAla]DGRK(Dnp); also: attached to PEGA resin particle)
[1]
  Fluorescence value (changed amount): 57

## Sample 13: PEGA resin particle bearing FITC-β-Ala-Ser-Ala-Arg-Lys, Dnp quencher on lysine ({FITC}-[βAla]SARK(Dnp); also: attached to PEGA resin particle)
[1]
  Fluorescence value (changed amount): 24

## Sample 3: PEGA resin particle bearing FITC-β-Ala-Ala-Pro-Val-Lys, Dnp quencher on lysine ({FITC}-[βAla]APVK(Dnp); also: attached to PEGA resin particle)
[5]
  Fluorescence value (changed amount): 1.2

## Sample 16: PEGA resin particle bearing FITC-β-Ala-Gly-Arg-Arg-Lys, Dnp quencher on lysine ({FITC}-[βAla]GRRK(Dnp); also: attached to PEGA resin particle)
[1]
  Fluorescence value (changed amount): 14

## Sample 19: PEGA resin particle bearing FITC-β-Ala-Phe-Phe-Arg-Lys, Dnp quencher on lysine ({FITC}-[βAla]FFRK(Dnp); also: attached to PEGA resin particle)
[1]
  Fluorescence value (changed amount): 8

## Sample 2: PEGA resin particle bearing FITC-β-Ala-Ala-Pro-Ala-Lys, Dnp quencher on lysine ({FITC}-[βAla]APAK(Dnp); also: attached to PEGA resin particle)
[5]
  Fluorescence value (changed amount): 7.9

## Sample 15: PEGA resin particle bearing FITC-β-Ala-Gly-Lys-Arg-Lys, Dnp quencher on lysine ({FITC}-[βAla]GKRK(Dnp); also: attached to PEGA resin particle)
[1]
  Fluorescence value (changed amount): 18

## Sample 12: PEGA resin particle bearing FITC-β-Ala-His-Glu-Lys-Lys, Dnp quencher on lysine ({FITC}-[βAla]HEKK(Dnp); also: attached to PEGA resin particle)
[1]
  Fluorescence value (changed amount): 45

## Sample 22: PEGA resin particle bearing FITC-β-Ala-Leu-Leu-Glu-Lys, Dnp quencher on lysine ({FITC}-[βAla]LLEK(Dnp); also: attached to PEGA resin particle)
[2]
  Fluorescence value Subtilisin (changed amount): 481
[3]; Table 3 values, same particle
  fluorescence change by trypsin activity relative to that by subtilisin activity: about 1/240
[3]
  Fluorescence value Trypsin (changed amount): 2
[4]
  Fluorescence value Elastase (changed amount): 38

## Sample 21: PEGA resin particle bearing FITC-β-Ala-Pro-Phe-Arg-Lys, Dnp quencher on lysine ({FITC}-[βAla]PFRK(Dnp); also: attached to PEGA resin particle)
[1]
  Fluorescence value (changed amount): 3

## Sample 23: PEGA resin particle bearing FITC-β-Ala-Ala-Pro-Ala-Lys, Dnp quencher on lysine ({FITC}-[βAla]APAK(Dnp); also: attached to PEGA resin particle)
[2]
  Fluorescence value Subtilisin (changed amount): 291
[3]
  Fluorescence value Trypsin (changed amount): 13
[4]; Table 3 values, same particle
  fluorescence change by elastase activity relative to that by subtilisin activity: about 2 times
[4]
  Fluorescence value Elastase (changed amount): 582

## Sample 1: PEGA resin particle bearing FITC-β-Ala-Pro-Leu-Gly-Lys, Dnp quencher on lysine ({FITC}-[βAla]PLGK(Dnp); also: attached to PEGA resin particle)
[5]
  Fluorescence value (changed amount): 14.8
[5]; subtilisin, 20 minutes
  difference in the changed amount of the fluorescence values, sample 1 (highest activity) vs sample 8 (lowest activity): ≥ 10 times

## Sample 11: PEGA resin particle bearing FITC-β-Ala-Pro-Arg-Gly-Lys, Dnp quencher on lysine ({FITC}-[βAla]PRGK(Dnp); also: attached to PEGA resin particle)
[1]
  Fluorescence value (changed amount): 51
